Reference: BindingDB's records for doi:10.1016/j.bmcl.2006.01.011 (Purdue University, 2006)

Target: T1, Dimer of Gag-Pol polyprotein [501-599,Q508K,L534I,L564I,C568A,C596A] (Human immunodeficiency virus 1, UniProt P03367, C568A/C596A/L534I/L564I/Q508K)
T1 construct: 501-599
Assay: Protease Inhibition Assay
Settings: pH 6.4; 25 °C
Protocol: The Ki values were determined using fluorogenic substrate, 2-(aminobenzoyl)-Thr-Ile-Nle-Phe(p-NO2)-Gln-ArgNH2. A standard curve relating changes in fluorescent intensity to changes in concentration of product was used to convert fluorescent changes into molar velocities. The amount of cleavage was determined by HPLC.

Row | Compound | Ki
1 | C=CCC1(N(CC(C)C)C[C@@H](O)[C@H](Cc2ccccc2)NC(=O)O[C@H]2CO[C@H]3OCC[C@H]32)C(=O)Nc2ccccc21 (stereo partly drawn) [(3R,3aS,6aR)-hexahydrofuro[2,3-b]furan-3-yl N-[(2S,3R)-3-hydroxy-4-[(2-methylpropyl)[2-oxo-3-(prop-2-en-1-yl)-2,3-dihydro-1H-indol-3-yl]amino]-1-phenylbutan-2-yl]carbamate] | 4.5 nM
2 | CC(C)CN(C[C@@H](O)[C@H](Cc1ccccc1)NC(=O)O[C@H]1CO[C@H]2OCC[C@H]21)C1(C)C(=O)Nc2ccccc21 (stereo partly drawn) [(3R,3aS,6aR)-hexahydrofuro[2,3-b]furan-3-yl N-[(2S,3R)-3-hydroxy-4-[(3-methyl-2-oxo-2,3-dihydro-1H-indol-3-yl)(2-methylpropyl)amino]-1-phenylbutan-2-yl]carbamate] | 4.5 nM
3 | COc1ccc2c(c1)C(C)(N(CC(C)C)C[C@@H](O)[C@H](Cc1ccccc1)NC(=O)O[C@H]1CO[C@H]3OCC[C@H]31)C(=O)N2 (stereo partly drawn) [(3R,3aS,6aR)-hexahydrofuro[2,3-b]furan-3-yl N-[(2S,3R)-3-hydroxy-4-[(5-methoxy-3-methyl-2-oxo-2,3-dihydro-1H-indol-3-yl)(2-methylpropyl)amino]-1-phenylbutan-2-yl]carbamate] | 116 nM
4 | CC(C)CN(C[C@@H](O)[C@H](Cc1ccccc1)NC(=O)O[C@H]1CO[C@H]2OCC[C@H]21)C1(C)C(=O)N(C)c2ccccc21 (stereo partly drawn) [(3R,3aS,6aR)-hexahydrofuro[2,3-b]furan-3-yl N-[(2S,3R)-4-[(1,3-dimethyl-2-oxo-2,3-dihydro-1H-indol-3-yl)(2-methylpropyl)amino]-3-hydroxy-1-phenylbutan-2-yl]carbamate] | 51 nM
5 | O=C(N[C@@H](Cc1ccccc1)[C@H](O)CN1CC=CCCC12C(=O)Nc1ccccc12)O[C@H]1CO[C@H]2OCC[C@H]21 (stereo partly drawn) [(3R,3aS,6aR)-hexahydrofuro[2,3-b]furan-3-yl N-[(2S,3R)-4-{1',2',1,3,4,7-hexahydrospiro[azepine-2,3'-indole]-2'-one}-3-hydroxy-1-phenylbutan-2-yl]carbamate] | > 1000 nM
6 | O=C(N[C@@H](Cc1ccccc1)[C@H](O)CN1CCCCCC12C(=O)Nc1ccccc12)O[C@H]1CO[C@H]2OCC[C@H]21 (stereo partly drawn) [(3R,3aS,6aR)-hexahydrofuro[2,3-b]furan-3-yl N-[(2S,3R)-4-{1',2'-dihydrospiro[azepane-2,3'-indole]-2'-one}-3-hydroxy-1-phenylbutan-2-yl]carbamate] | > 1000 nM
7 | O=C(N[C@@H](Cc1ccccc1)[C@H](O)CN1CCCCC12C(=O)Nc1ccccc12)O[C@H]1CO[C@H]2OCC[C@H]21 (stereo partly drawn) [(3R,3aS,6aR)-hexahydrofuro[2,3-b]furan-3-yl N-[(2S,3R)-4-{1,2-dihydrospiro[indole-3,2'-piperidine]-2-one}-3-hydroxy-1-phenylbutan-2-yl]carbamate] | > 1000 nM
